Test results as given in ChEMBL document CHEMBL1287799, “Design, synthesis, and structure-activity relationship study of bicyclic piperazine analogs of indole-3-carboxamides as novel cannabinoid CB1 receptor agonists” (Bioorg Med Chem Lett, 2010).
Activity calls are given as the source filed them. No cut-off for these calls is given here.

Columns and labels:
[1] = Half life in human liver microsomes; type: ADME, Microsome
[2] = Half life in mouse liver microsomes; type: ADME, Microsome
Cannabinoid receptor 1 [3] = target: T1, Cannabinoid receptor 1 (Homo sapiens, UniProt P21554)
Description: Agonist activity at human CB1 receptor transfected in CHO cells after 5 hrs by luciferase reporter gene assay

Cytochrome P450 2D6 = Cytochrome P450 2D6 (Homo sapiens, UniProt P10635); test: Inhibition of human CYP2D6; type: ADME
[4] = Genotoxicity in Salmonella Typhimurium up to 100 uM by Ames test; type: toxicity; conditions: salmonella enterica subsp. enterica serovar typhimurium
Cannabinoid receptor 1 [5] = target: T1, Cannabinoid receptor 1; test: biochemical
Mus musculus [6] = test: Antinociceptive effect in iv dosed mouse assessed as increase in tail-flick latency period by tail flick test; type: functional
Cannabinoid receptor 2 = Cannabinoid receptor 2 (Homo sapiens, UniProt P34972); test: Displacement of [3H]-CP55940 from human CB2 expressed in insect Sf9 membranes; type: cell membranes
Cytochrome P450 3A4 = Cytochrome P450 3A4 (Homo sapiens, UniProt P08684); test: Inhibition of human CYP3A4; type: ADME
Cytochrome P450 2C9 = Cytochrome P450 2C9 (Homo sapiens, UniProt P11712); test: Inhibition of human CYP2C9; type: ADME
Mus musculus [7] = test: Antinociceptive activity against formalin-induced inflammatory pain in mouse assessed inhibition of paw flinching behavior in both phases of formalin response at => 0.3 umol/kg, iv; type: functional, organism-based
Mus musculus [8] = test: Antinociceptive activity against formalin-induced inflammatory pain in iv dosed mouse assessed inhibition of paw biting behavior in both phases of formalin response in presence of CB1 antagonist SR-141716A pretreated before compound challenge; type: functional, organism-based
Mus musculus [9] = test: Antinociceptive activity against formalin-induced inflammatory pain in iv dosed mouse assessed inhibition of paw flinching behavior in both phases of formalin response; type: functional, organism-based
Mus musculus [10] = test: Antinociceptive activity against formalin-induced inflammatory pain in iv dosed mouse assessed inhibition of paw licking behavior in both phases of formalin response in presence of CB1 antagonist SR-141716A pretreated before compound challenge; type: functional, organism-based
Mus musculus [11] = test: Antinociceptive activity against formalin-induced inflammatory pain in iv dosed mouse assessed inhibition of paw lifting behavior in both phases of formalin response in presence of CB1 antagonist SR-141716A pretreated before compound challenge; type: functional, organism-based
Mus musculus [12] = test: Antinociceptive activity against formalin-induced inflammatory pain in mouse assessed inhibition of paw licking behavior in both phases of formalin response at => 0.3 umol/kg, iv; type: functional, organism-based
Mus musculus [13] = test: Antinociceptive activity against formalin-induced inflammatory pain in mouse assessed inhibition of paw biting behavior in both phases of formalin response => 0.3 umol/kg, iv; type: functional, organism-based
Mus musculus [14] = test: Antinociceptive activity against formalin-induced inflammatory pain in iv dosed mouse assessed inhibition of paw biting behavior in both phases of formalin response; type: functional, organism-based
Mus musculus [15] = test: Antinociceptive activity against formalin-induced inflammatory pain in iv dosed mouse assessed inhibition of paw lifting behavior in both phases of formalin response; type: functional, organism-based
Mus musculus [16] = test: Antinociceptive activity against formalin-induced inflammatory pain in mouse assessed inhibition of paw lifting behavior in both phases of formalin response at => 0.3 umol/kg, iv; type: functional, organism-based
Mus musculus [17] = test: Antinociceptive activity against formalin-induced inflammatory pain in iv dosed mouse assessed inhibition of paw licking behavior in both phases of formalin response; type: functional, organism-based
Mus musculus [18] = test: Antinociceptive activity against formalin-induced inflammatory pain in iv dosed mouse assessed inhibition of paw flinching behavior in both phases of formalin response in presence of CB1 antagonist SR-141716A pretreated before compound challenge; type: functional, organism-based

T1 sequence (P21554 whole entry): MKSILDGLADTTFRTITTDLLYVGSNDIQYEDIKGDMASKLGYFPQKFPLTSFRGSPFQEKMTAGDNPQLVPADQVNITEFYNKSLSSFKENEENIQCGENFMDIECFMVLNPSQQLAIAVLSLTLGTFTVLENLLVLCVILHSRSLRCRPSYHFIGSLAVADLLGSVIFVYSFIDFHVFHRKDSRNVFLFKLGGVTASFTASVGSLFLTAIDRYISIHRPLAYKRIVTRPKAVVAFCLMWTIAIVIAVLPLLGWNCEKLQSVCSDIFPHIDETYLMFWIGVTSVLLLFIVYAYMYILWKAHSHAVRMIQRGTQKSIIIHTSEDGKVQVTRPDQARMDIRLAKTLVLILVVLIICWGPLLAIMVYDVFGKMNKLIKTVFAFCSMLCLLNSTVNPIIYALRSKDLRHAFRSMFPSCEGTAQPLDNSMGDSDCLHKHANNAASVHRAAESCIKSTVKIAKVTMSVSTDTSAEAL
Cannabinoid receptor 2, sequence (P34972 whole entry): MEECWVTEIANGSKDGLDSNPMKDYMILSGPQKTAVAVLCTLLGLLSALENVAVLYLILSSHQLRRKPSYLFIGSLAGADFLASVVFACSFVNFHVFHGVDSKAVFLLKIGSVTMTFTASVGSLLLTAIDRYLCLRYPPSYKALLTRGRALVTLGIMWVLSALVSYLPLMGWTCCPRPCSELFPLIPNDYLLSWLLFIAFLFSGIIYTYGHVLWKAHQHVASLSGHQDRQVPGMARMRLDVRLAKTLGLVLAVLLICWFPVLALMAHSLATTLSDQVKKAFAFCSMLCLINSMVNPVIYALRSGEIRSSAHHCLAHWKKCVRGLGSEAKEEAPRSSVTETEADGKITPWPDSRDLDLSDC
Cytochrome P450 2D6, sequence (P10635 whole entry): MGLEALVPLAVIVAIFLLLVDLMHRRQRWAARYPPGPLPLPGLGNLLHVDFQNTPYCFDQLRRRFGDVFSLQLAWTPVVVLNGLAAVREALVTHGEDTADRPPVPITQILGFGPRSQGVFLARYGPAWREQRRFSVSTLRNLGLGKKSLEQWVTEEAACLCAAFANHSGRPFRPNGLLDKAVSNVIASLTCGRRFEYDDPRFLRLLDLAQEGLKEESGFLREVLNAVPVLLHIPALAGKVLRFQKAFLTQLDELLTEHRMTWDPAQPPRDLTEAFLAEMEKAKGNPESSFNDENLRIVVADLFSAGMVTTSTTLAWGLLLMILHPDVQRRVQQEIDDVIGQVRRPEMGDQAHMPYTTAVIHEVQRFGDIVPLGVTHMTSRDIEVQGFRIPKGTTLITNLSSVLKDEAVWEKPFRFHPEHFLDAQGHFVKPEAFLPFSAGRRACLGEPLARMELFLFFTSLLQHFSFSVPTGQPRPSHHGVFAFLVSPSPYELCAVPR
Cytochrome P450 3A4, sequence (P08684 whole entry): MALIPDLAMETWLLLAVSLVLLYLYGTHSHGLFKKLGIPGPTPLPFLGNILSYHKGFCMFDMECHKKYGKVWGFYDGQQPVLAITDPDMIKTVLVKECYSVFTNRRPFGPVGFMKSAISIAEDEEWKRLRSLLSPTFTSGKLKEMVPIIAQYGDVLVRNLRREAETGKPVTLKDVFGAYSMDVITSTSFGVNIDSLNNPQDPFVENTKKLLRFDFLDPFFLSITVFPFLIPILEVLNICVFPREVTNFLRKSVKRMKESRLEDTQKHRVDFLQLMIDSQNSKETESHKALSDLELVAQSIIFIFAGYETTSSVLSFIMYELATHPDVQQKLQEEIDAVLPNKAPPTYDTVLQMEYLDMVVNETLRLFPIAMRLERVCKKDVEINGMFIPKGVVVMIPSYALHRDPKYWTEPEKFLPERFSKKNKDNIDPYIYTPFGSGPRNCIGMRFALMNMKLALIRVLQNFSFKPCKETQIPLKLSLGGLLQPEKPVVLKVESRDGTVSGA
Cytochrome P450 2C9, sequence (P11712 whole entry): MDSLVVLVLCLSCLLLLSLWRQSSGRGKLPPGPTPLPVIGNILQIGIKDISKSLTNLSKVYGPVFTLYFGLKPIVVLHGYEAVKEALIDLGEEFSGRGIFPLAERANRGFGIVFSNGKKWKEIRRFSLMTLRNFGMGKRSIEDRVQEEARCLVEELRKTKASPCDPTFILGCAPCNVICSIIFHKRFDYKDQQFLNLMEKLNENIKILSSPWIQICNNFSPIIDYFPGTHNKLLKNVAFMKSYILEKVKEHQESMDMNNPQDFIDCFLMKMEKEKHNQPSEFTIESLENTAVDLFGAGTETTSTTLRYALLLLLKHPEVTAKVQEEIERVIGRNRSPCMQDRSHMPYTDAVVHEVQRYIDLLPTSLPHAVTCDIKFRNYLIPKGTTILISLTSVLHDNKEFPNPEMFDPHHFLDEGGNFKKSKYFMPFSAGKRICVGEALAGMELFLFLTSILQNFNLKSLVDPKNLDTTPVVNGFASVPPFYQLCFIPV

| SMILES | half-life [1] | half-life [2] | EC50 (Cannabinoid receptor 1 [3]) | also measured |
| --- | --- | --- | --- | --- |
| COc1cccc2c(C(=O)N3C[C@H]4CCCN4C[C@H]3CC(C)C)cn(CC3CCCCC3)c12 | < 5 min | < 5 min | 0.316 µM |  |
| COc1cccc2c(C(=O)N3C[C@@H]4CCCN4C[C@@H]3C)cn(CC3CCCCC3)c12 | < 5 min | < 5 min | 0.1 µM |  |
| COc1cccc2c(C(=O)N3CCN4CCCC[C@H]4C3)cn(CC3CCCCC3)c12 [listing 1 of 2 here] |  |  |  | IC50 (Cytochrome P450 2D6): 13 µM; Activity [4]: Non-toxic; Ki (Cannabinoid receptor 1 [5]): 0.00251 µM; ED50 (Mus musculus [6]): 0.00058 µmol/kg; Ki (Cannabinoid receptor 2): 0.00398 µM; IC50 (Cytochrome P450 3A4): 6 µM; IC50 (Cytochrome P450 2C9): 12 µM |
| COc1cccc2c(C(=O)N3C[C@H]4CCCN4C[C@@H]3C)cn(CC3CCCCC3)c12.Cl | < 5 min | < 5 min | 0.501 µM |  |
| COc1cccc2c(C(=O)N3CCN4CCCC[C@H]4C3)cn(CC3CCCCC3)c12.Cl | < 5 min | < 5 min |  |  |
| COc1cccc2c(C(=O)N3CCN4CCC[C@@]4(C)C3)cn(CC3CCCCC3)c12.Cl | < 5 min | < 5 min | 1.26 µM |  |
| COc1cccc2c(C(=O)N3C[C@]4(C)CSCN4C[C@@H]3C)cn(CC3CCCCC3)c12.Cl | < 5 min | < 5 min | 0.0316 µM |  |
| O=C(c1cn2c3c(cccc13)OC[C@H]2C1CCCCC1)N1CCN2CCCC[C@H]2C1 |  |  |  | Ki (Cannabinoid receptor 1 [5]): 0.00158 µM; ED50 (Mus musculus [6]): 0.00042 µmol/kg; Ki (Cannabinoid receptor 2): 0.000398 µM |
| COc1cccc2c(C(=O)N3C[C@H]4CCCN4C[C@H]3C)cn(CC3CCCCC3)c12.Cl | < 5 min | < 5 min | 0.0631 µM |  |
| COc1cccc2c(C(=O)N3CCN4CCCC[C@@H]4C3)cn(CC3CCCCC3)c12 | < 5 min | < 5 min | 0.1 µM |  |
| COc1cccc2c(C(=O)N3C[C@@H]4CCCN4CC3(C)C)cn(CC3CCCCC3)c12 | < 5 min | < 5 min | 0.1 µM |  |
| COc1cccc2c(C(=O)N3CCN4CCCC[C@H]4C3)cn(CC3CCCCC3)c12 [listing 2 of 2 here] |  |  |  | Activity (Mus musculus [7]): Active; Activity (Mus musculus [8]): inactive; Activity (Mus musculus [9]): Dose-dependent effect; Activity (Mus musculus [10]): inactive; Activity (Mus musculus [11]): inactive; Activity (Mus musculus [12]): Active; Activity (Mus musculus [13]): Active; Activity (Mus musculus [14]): Dose-dependent effect; Activity (Mus musculus [15]): Dose-dependent effect; Activity (Mus musculus [16]): Active; Activity (Mus musculus [17]): Dose-dependent effect; Activity (Mus musculus [18]): inactive |
| Cc1c(C(=O)c2cccc3ccccc23)c2cccc3c2n1[C@H](CN1CCOCC1)CO3 [WIN-552122] |  |  |  | ED50 (Mus musculus [6]): 0.0017 µmol/kg |
| COc1cccc2c(C(=O)N3C[C@@H]4CCCN4C[C@@H]3CC(C)C)cn(CC3CCCCC3)c12 | < 5 min | < 5 min | > 10 µM |  |
| COc1cccc2c(C(=O)N3C[C@@H]4CCCN4C[C@H]3C)cn(CC3CCCCC3)c12.Cl | < 5 min | < 5 min | 1 µM |  |
| COc1cccc2c(C(=O)N3C[C@H]4CCCN4CC3(C)C)cn(CC3CCCCC3)c12 | < 5 min | < 5 min | 0.631 µM |  |
| COc1cccc2c(C(=O)N3CCN4CCC[C@@H]4C3)cn(CC3CCCCC3)c12 | < 5 min | < 5 min | 0.0631 µM |  |
| O=C(c1cn2c3c(cccc13)OC[C@@H]2C1CCCCC1)N1CCN2CCCC[C@H]2C1 |  |  | 2 µM |  |
| CCCCCCC(C)(C)c1ccc([C@@H]2C[C@H](O)CC[C@H]2CCCO)c(O)c1 [CP-55940] |  |  |  | ED50 (Mus musculus [6]): 0.00011 µmol/kg |
| COc1cccc2c(C(=O)N3CCN4CCC[C@H]4C3)cn(CC3CCCCC3)c12.Cl | < 5 min | < 5 min | 0.02 µM |  |
